{"source": "patent US8703805B2", "about": "(Exelixis Patent Company LLC, priority 2005, dated 2014)"}
{"test_system": "LXRα and/or LXRβ", "experiment": "LXR/LXRE co-transfection assay (luciferase reporter, CV-1 cells)", "format": "cell-based, human", "conditions": "IC50 or EC50 for LXR (LXRα and/or LXRβ, not distinguished), tested as described in Example 109, CV-1 cells", "summary_of_the_method": "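Transient co-transfection of CV-1 cells with full-length human LXRα or LXRβ plus RXRα expression plasmids and an LXREx1-Tk-luciferase reporter; compounds (10 μM screen, ≤1% DMSO) incubated 20 h at 37 °C. Luminescence read after lysis; EC50/IC50 from 8-point half-log curves, efficacy relative to a high control or DMSO.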", "units": {"EC50": "nM"}}
{"smiles": "CC(C)(O)c1cc(-c2cc(C(F)(F)F)nn2-c2ccccc2Cl)ccc1-c1cccc(S(C)(=O)=O)c1", "note": "[Example 1207, 2-{4-[1-(2-chlorophenyl)-3-(trifluoromethyl)-1H-pyrazol-5-yl]-3′-(methylsulfonyl)biphenyl-2-yl}propan-2-ol]", "EC50": "1000 to 10000"}
{"smiles": "Cc1ccc(F)cc1-n1nc(C(C)(C)O)cc1-c1ccc(-c2cccc(S(C)(=O)=O)c2)s1", "note": "[Example 1331, 2-[1-(5-fluoro-2-methylphenyl)-5-{5-[3-(methylsulfonyl)phenyl]-2-thienyl}-1H-pyrazol-3-yl]propan-2-ol]", "EC50": "< 1000"}
{"smiles": "CC(C)(O)c1cc(-c2ccc(-c3cccc(S(C)(=O)=O)c3)s2)n(-c2cccc(C(F)(F)F)c2F)n1", "note": "[Example 1333, 2-(1-[2-fluoro-3-(trifluoromethyl)phenyl]-5-{5-[3-(methylsulfonyl)phenyl]-2-thienyl}-1H-pyrazol-3-yl)propan-2-ol]", "EC50": "1000 to 10000"}
{"smiles": "CC(=O)c1cc(-c2ccccc2Cl)n(-c2ccc(-c3cccc(S(C)(=O)=O)c3)cn2)n1", "note": "[Example 1248, 1-[5-(2-chlorophenyl)-1-(5-[3-(methylsulfonyl)phenyl]pyridin-2-yl}-1H-pyrazol-3-yl]ethanone]", "EC50": "1000 to 10000"}
{"smiles": "CC(=O)c1cc(-c2ccc(-c3cccc(S(C)(=O)=O)c3)s2)n(-c2cc(Cl)ccc2Oc2ccccc2)n1", "note": "[Example 1213, 1-(1-[5-chloro-2-(phenyloxy)phenyl]-5-{5-[3-(methylsulfonyl)phenyl]-2-thienyl}-1H-pyrazol-3-yl)ethanone]", "EC50": "< 1000"}
{"smiles": "CC(C)S(=O)(=O)c1cccc(-c2ccc(-c3cc(C(C)(C)O)nn3-c3ncccc3C(F)(F)F)s2)c1", "note": "[Example 1184, 2-{5-(5-{3-[(1-methylethyl)sulfonyl]phenyl}-2-thienyl)-1-[3-(trifluoromethyl)pyridin-2-yl]-1H-pyrazol-3-yl}propan-2-ol]", "EC50": "1000 to 10000"}
{"smiles": "CC(C)c1cccc(-c2ccc(-c3cc(C(C)(C)O)nn3-c3ccccc3Cl)s2)c1", "note": "[Example 1332, 2-[1-(2-chlorophenyl)-5-{5-[3-(1-methylethyl)phenyl]-2-thienyl}-1H-pyrazol-3-yl]propan-2-ol]", "EC50": "1000 to 10000"}
{"smiles": "CCNC(=S)c1cc(-c2ccc(-c3cccc(S(C)(=O)=O)c3)s2)n(-c2ccccc2Cl)n1", "note": "[Example 1194, 1-(2-chlorophenyl)-N-ethyl-5-{5-[3-(methylsulfonyl)phenyl]-2-thienyl}-1H-pyrazole-3-carbothioamide]", "EC50": "< 1000"}
{"smiles": "CC(C)(O)c1cc(-c2ccc(-c3cc(C(F)(F)F)nn3-c3cc(Cl)ccc3Cl)s2)cc(S(C)(=O)=O)c1", "note": "[Example 1308, 2-[3-{5-[1-(2,5-dichlorophenyl)-3-(trifluoromethyl)-1H-pyrazol-5-yl]-2-thienyl}-5-(methylsulfonyl)phenyl]propan-2-ol]", "EC50": "< 1000"}
{"smiles": "CC(C)(O)c1cc(-c2ccc(-c3ccc(S(N)(=O)=O)cc3)cc2)n(-c2ccccc2Cl)n1", "note": "[Example 1306, 4′-[1-(2-chlorophenyl)-3-(1-hydroxy-1-methylethyl)-1H-pyrazol-5-yl]biphenyl-4-sulfonamide]", "EC50": "1000 to 10000"}
{"smiles": "CONC(=O)c1cc(-c2ccc(-c3cccc(S(C)(=O)=O)c3)s2)n(-c2ccccc2Cl)n1", "note": "[Example 1163, 1-(2-chlorophenyl)-N-(methyloxy)-5-{5-[3-(methylsulfonyl)phenyl]-2-thienyl}-1H-pyrazole-3-carboxamide]", "EC50": "1000 to 10000"}
{"smiles": "CC(C)(O)c1cc(-c2ccc(-c3cccc(S(C)(=O)=O)c3)s2)n(-c2ncccc2C(F)(F)F)n1", "note": "[Example 1178, 2-(5-{5-[3-(methylsulfonyl)phenyl]-2-thienyl}-1-[3-(trifluoromethyl)pyridin-2-yl]-1H-pyrazol-3-yl)propan-2-ol]", "EC50": "< 1000"}
{"smiles": "CC(C)(O)c1cc(-c2ccc(-c3cccc(NS(=O)(=O)C(F)(F)F)c3)cc2)n(-c2ccccc2Cl)n1", "note": "[Example 1310, N-{4′-[1-(2-chlorophenyl)-3-(1-hydroxy-1-methylethyl)-1H-pyrazol-5-yl]biphenyl-3-yl}-1,1,1-trifluoromethanesulfonamide]", "EC50": "1000 to 10000"}
